The nature of data set [1]: Hydration study (stirring in ethanol: water mixtures, XRPD). The class given is physicochemical. Here is the method:
20 mg of osanetant p-toluenesulfonic acid Form 1 was stirred in the appropriate ethanol: water mixtures for 24 h at 25° C. Where clear solutions were observed after 1 h at 25° C., 0.5 mL of liquor was removed, and additional solid was added until a slurry was maintained. After 24 h total, the experiments were isolated by centrifugation, and the solids were analyzed by XRPD.
Osanetant benzenesulfonic acid Form 3 (20 mg) was stirred in the appropriate ethanol: water mixtures for 24 h at 25° C. Where clear solutions were observed after 1 h at 25° C., 0.5 mL of liquor was removed from the Aw 0.257 sample, and additional solid was added until a slurry was maintained. After 24 h total, the experiments were isolated by centrifugation, and the solids were analyzed by XRPD.

The nature of data set [2]: Disproportionation study (stirring in water, XRPD, pH of liquor). The class given is physicochemical. The conditions noted are these: 10 mg in 1 mL of water, 24 h at 25° C. The procedure: After 24 h total, a white slurry was observed and was isolated by centrifugation. The solids were analyzed by XRPD. The pH of the filtered liquor was measured at 5.63. […] After 24 h total, a white slurry was observed and was isolated by centrifugation. The solids were analyzed by XRPD. The pH of the filtered liquor was measured (pH=5.09).

Data set [3] is described as follows: Salt screen: XRPD of isolated solids after drying at 40° C. and at 40° C./75% RH. The data set is classed as physicochemical. The conditions noted are these: for XRPD after drying at 40° C./75% RH: after 40° C. drying, dried at 40° C./75% RH for about 24 h, label = form after 40° C. drying; for XRPD after drying at 40° C.: isolated solids dried at 40° C. for about 24 h, label = wet form. Here is the method: To approximately 20 mg of amorphous lyophilized osanetant was added 0.3 mL of solvent for liquid counterion experiments. 0.2 mL of solvent was employed for solid counterion experiments. […] To the stirring mixture was then added 1.05 mol eq. of the appropriate counterion. Where solid counterions were used, the vial which contained the counterion was washed in to the osanetant containing vial with 0.1 mL of the appropriate solvent. Additional solvent was added where necessary. The experiments were thermally cycled as follows: heated from 25 to 40° C. at a rate of 0.1° C./min; 1 h at 40° C.; Cool to 5° C. at a rate of 0.1° C.; 1 h at 5° C.; 40° C. at a rate of 0.1° C./min; […] The crystallization experiments were thermally cycled overnight, then slurries were isolated by centrifugation. XRPD analysis was carried out on any isolated solids or gums. The XRPD plate, and the isolated solids, were then dried at 40° C. for about 24 h, and XRPD analysis was repeated. The XRPD plate was then dried at 40° C./75% RH for about 24 h and XRPD analysis was again repeated. All other samples were allowed to evaporated at ambient temperature and pressure.

Data set [4] in a line: Comparative studies: 7-day stability. The class given is physicochemical. The conditions noted are these: for impurities on 7-day stability: 80° C.; for solid form on 7-day stability: 7 days, elevated temperature where stated. The procedure: Osanetant p-toluenesulfonic acid Form 1, osanetant benzene sulfonic acid Form 3, osanetant naphthalene-2-sulfonic acid Form 3, and osanetant phosphoric acid Form 7 were compared. Osanetant phosphoric acid Form 7 was obtained when preparation of osanetant phosphoric acid Form 4 was repeated and found to be not reproducible, and Form 7 was determined to be a mixture of hydrates).
Thus, osanetant benzene sulfonic acid salt Form 1 and osanetant p-toluene sulfonic acid salt Form 1 were identified as advantageous salts.

A short description of data set [5]: Thermodynamic solubility in water and pH buffers.
Data set [6] can be described thus: Solid form stability observations (scale up / polymorph work: drying, ambient conditions, aqueous media). The data set is classed as physicochemical. Here is the method:
Two anhydrous forms of the osanetant p-toluenesulfonic acid were synthesized. […] Form 6, described below, was a stable anhydrous form, but hydrated in water and aqueous solvent mixtures.
Advantageously, Form 1 (hydrate) and Form 6 (anhydrous) were stable on drying. Form 1 re-hydrated at room temperature and pressure after KF analysis, when it was heated in an oven to remove the water.
The experiment was cooled to 5° C. at a rate of 0.1° C./min and stirred at 5° C. for 18 h. The slurry was isolated be Buchner filtration: 42.5 mm Ø grade 1 Whatman filter paper; fast Filtration (<30 s); the cake was washed with 1 mL of ethyl acetate; the isolated solids were dried at 40° C. under vacuum for 72 h. […]

The nature of data set [7]: Hygroscopicity / dynamic vapor sorption (DVS). The class given is physicochemical. The procedure: The osanetant p-toluenesulfonic acid Form 1 solids consisted of aggregated crystals with an undefined morphology. Select peaks which can be used to characterize osanetant p-toluenesulfonic acid Form 1 include one or more of 11.4°2θ±0.2°2θ, 18.0°2θ±0.2°2θ, 19.0°2θ±0.2°2θ, 19.3°2θ±0.2°2θ, 19.8°2θ±0.2°2θ, or 21.1°2θ±0.2°2θ. In some embodiments, osanetant p-toluenesulfonic acid Form 1 is a monohydrate.

“Also recorded” adds a separate entry of the source.

In the case of `CC(=O)N(C)C1(c2ccccc2)CCN(CCC[C@]2(c3ccc(Cl)c(Cl)c3)CCCN(C(=O)c3ccccc3)C2)CC1.O=S(=O)(O)c1ccccc1` [osanetant benzenesulfonic acid Form 3, (R)-N-(1-(3-(1-benzoyl-3-(3,4-dichlorophenyl)piperidin-3-yl)propyl)-4-phenylpiperidin-4-yl)-N-methylacetamide benzenesulfonic acid], in data set [1] (24 h at 25° C., Aw 0.507 and above / high water activity), the “XRPD form after stirring in ethanol: water mixtures” value was “conversion to osanetant benzenesulfonic acid Form 1; also recorded: converted to osanetant benzene sulfonic acid Form 1”. Besides, the XRPD result in data set [1] (slurry in ethanol:water 63.6:36.4 % v/v, calc Aw 0.745, 24 h at 25° C.) is given as “Form 1”. In addition, the XRPD result in data set [1] (slurry in ethanol:water 92.9:7.1 % v/v, calc Aw 0.507, 24 h at 25° C.) was “Form 1”. The XRPD result in data set [1] (slurry in ethanol:water 98.4:1.6 % v/v, calc Aw 0.257, 24 h at 25° C.) is given as “Form 3”. Further, in data set [2], the “XRPD form / disproportionation after stirring in water” value is listed as “converted to osanetant benzenesulfonic acid Form 1” and the “pH of the filtered liquor” value amounted to 5.09. Besides, in data set [3], the “XRPD after drying at 40° C./75% RH” value is on record as “retained; also recorded: stable; also recorded: Form 3” and the “XRPD after drying at 40° C.” value is given as “Form 3”. Also, in data set [4] (7-day stability results, overall), the solid chemical stability entry is reported as “good”. Also, in data set [4], the “impurities on 7-day stability” value is recorded as “slight increase in impurities; also recorded: lowest impurity increase” and the “solid form on 7-day stability” value is on record as “retained form”. Moreover, in data set [5], the “solid form after thermodynamic solubility in pH buffers” value is given as “converted to Form 1” and the “thermodynamic solubility in pH buffers / buffered systems” value is “low”. Further, the “hydration / form conversion in water and aqueous solvent mixtures” value in data set [6] was “converted to osanetant benzene sulfonic acid salt form Form 1”. Further, in data set [6] (drying (40° C. under vacuum where stated)), the form on drying result was “no change”.

As to “(R)-N-(1-(3-(1-benzoyl-3-(3,4-dichlorophenyl)piperidin-3-yl)propyl)-4-phenylpiperidin-4-yl)-N-methylacetamide naphthalene-2-sulfonic acid [osanetant naphthalene-2-sulfonic acid Form 3]”, in data set [3], the “XRPD after drying at 40° C./75% RH” value was “retained; also recorded: stable; also recorded: Form 3” and the “XRPD after drying at 40° C.” value is “retained; also recorded: Form 3”. Besides, in data set [4], the “impurities on 7-day stability” value is “increase in impurities” and the “solid form on 7-day stability” value is on record as “stable solid form”. Further, the “hygroscopicity / water loss on DVS analysis” value in data set [7] is on record as “more hygroscopic”.

The values are drawn from US20240336565A1, “SOLID FORMS OF OSANETANT” (Acer Therapeutics, Inc., priority 2021, published 2024).
